Measured values as given in ChEMBL document CHEMBL1121780, “Synthesis and antiarrhythmic activity of new benzofuran derivatives” (J Med Chem, 1981).
Active and inactive are the calls of the source. The calls are words filed in the database; no cut-off is given here.

Assays:
Canis familiaris [1] = species: Canis familiaris; assay: Activity against ouabain-induced ventricular arrhythmia was measured as percent of sinus rhythm recovery; Inactive; type: functional, organism-based; details: Canis lupus familiaris; Cardiac ventricle
[2] = Toxicity estimated in mouse as LD50 by intravenous administration; type: organism-based; details: in vivo
Canis familiaris [3] = assay: Activity against ouabain-induced ventricular arrhythmia was measured as percent of sinus rhythm recovery at dose of 2 mg/kg iv; type: functional, Canis lupus familiaris, Cardiac ventricle
Canis familiaris [4] = species: Canis familiaris; assay: Duration for the sinus rhythm recovery was measured; type: functional, Canis lupus familiaris
Canis familiaris [5] = assay: Activity against ouabain-induced ventricular arrhythmia was measured as percent of sinus rhythm recovery at dose of 4 mg/kg iv; type: functional, Canis lupus familiaris, Cardiac ventricle
Canis familiaris [6] = assay: Activity against harris coronary ligation induced ventricular arrhythmia was measured as percent of initial sinus complexes after dose 5 mg/kg, iv; type: functional, Canis lupus familiaris, Cardiac ventricle
Canis familiaris [7] = assay: Activity against harris coronary ligation induced ventricular arrhythmia was measured as percent of final sinus complexes after dose 5 mg/kg, iv; type: functional, Canis lupus familiaris, Cardiac ventricle
Canis familiaris [8] = species: Canis familiaris; assay: Duration for the antiarrhythmic activity was measured; type: functional, Canis lupus familiaris, Heart
Canis familiaris [9] = assay: Activity against harris coronary ligation induced ventricular arrhythmia was measured as percent of initial sinus complexes after dose 2 mg/kg, iv; Inactive; type: functional, organism-based; parameters: dose 2 mg/kg; details: Canis lupus familiaris; Cardiac ventricle; at 2 mg/kg
Canis familiaris [10] = assay: Activity against harris coronary ligation induced ventricular arrhythmia was measured as percent of initial sinus complexes after dose 2 mg/kg iv; type: functional, Canis lupus familiaris, Cardiac ventricle
Canis familiaris [11] = assay: Activity against harris coronary ligation induced ventricular arrhythmia was measured as percent of initial sinus complexes after dose 12.5 mg/kg, po; type: functional, Canis lupus familiaris, Cardiac ventricle
Canis familiaris [12] = assay: Activity against harris coronary ligation induced ventricular arrhythmia was measured as percent of final sinus complexes after dose 12.5 mg/kg, po; type: functional, Canis lupus familiaris, Cardiac ventricle
Canis familiaris [13] = assay: Activity against harris coronary ligation induced ventricular arrhythmia was measured as percent of final sinus complexes after dose 2 mg/kg, iv; type: functional, Canis lupus familiaris, Cardiac ventricle
Canis familiaris [14] = assay: Activity against harris coronary ligation induced ventricular arrhythmia was measured as percent of final sinus complexes after dose 2 mg/kg iv; type: functional, Canis lupus familiaris, Cardiac ventricle
Canis familiaris [15] = assay: Activity against ouabain-induced ventricular arrhythmia was measured as percent of sinus rhythm recovery at dose of 1 mg/kg iv; type: functional, Canis lupus familiaris, Cardiac ventricle
Canis familiaris [16] = assay: Activity against harris coronary ligation induced ventricular arrhythmia was measured as percent of initial sinus complexes after dose 4 mg/kg iv; Inactive; type: functional, organism-based; parameters: dose 4 mg/kg; details: Canis lupus familiaris; Cardiac ventricle; at 4 mg/kg
Canis familiaris [17] = species: Canis familiaris; assay: Activity against ouabain-induced ventricular arrhythmia was measured as percent of sinus rhythm recovery; Estimated as too toxic to be tested; type: functional, organism-based; details: Canis lupus familiaris; Cardiac ventricle

For `CNCCOc1c(NC(C)=O)c(OC)c2ccoc2c1OC`, the SRR (Canis familiaris [1]) was “inactive” and the LD50 [2] was 96 mg/kg.

In the case of `COc1c(NC(=O)NC(C)(C)C)c(OCCN2CCCCC2)c(OC)c2occc12`, the SRR (Canis familiaris [1]) is reported as “inactive” and the LD50 [2] is reported as 11.5 mg/kg.

For `CNC(=O)N(C)c1c(OCCN2CCCCC2)c(OC)c2occc2c1OC`, the SRR (Canis familiaris [3]) was 100%, the Duration (Canis familiaris [4]) was <10 min and the LD50 [2] was 66 mg/kg.

For `COC(=O)Nc1c(OCCN2CCCCC2)c(OC)c2occc2c1OC`, the SRR (Canis familiaris [1]) was “inactive” and the LD50 [2] was 15 mg/kg.

In the case of `CCOC(=O)Nc1c(OCCN2CCCCC2)c(OC)c2occc2c1OC`, the SRR (Canis familiaris [1]) is reported as “inactive” and the LD50 [2] is reported as 13 mg/kg.

For `CCCCNC(=O)Nc1c(OCCN2CCCCC2)c(OC)c2occc2c1OC`, the SRR (Canis familiaris [1]) was “inactive” and the LD50 [2] was 22 mg/kg.

With `CNC(=O)Nc1c(OCCN2CCOCC2)c(OC)c2occc2c1OC` the SRR (Canis familiaris [1]) was “inactive” and the LD50 [2] was 100 mg/kg.

In the case of `COc1c(NC(C)=O)c(OCCN2CCCC2)c(OC)c2occc12`, the Duration (Canis familiaris [4]) is reported as <30 min, the LD50 [2] is reported as 80 mg/kg and the SRR (Canis familiaris [5]) is reported as 33%.

In the case of `COc1c(NC(=O)OC2CCCCC2)c(OCCN2CCCCC2)c(OC)c2occc12`, the SRR (Canis familiaris [1]) is reported as “inactive” and the LD50 [2] is reported as 15 mg/kg.

With `CNC(=O)Nc1c(OCCCN2CCCC2)c(OC)c2occc2c1OC` the ISC (Canis familiaris [6]) was 0%, the FSC (Canis familiaris [7]) was 9% and the Duration (Canis familiaris [4]) was >60 min. The LD50 [2] was 32 mg/kg, the Duration (Canis familiaris [8]) was 20 min and the SRR (Canis familiaris [5]) was 100%.

For `COc1c(NC(C)=O)c(OCCN2CCOCC2)c(OC)c2occc12`, the SRR (Canis familiaris [1]) was “inactive” and the LD50 [2] was 200 mg/kg.

With `CNC(=O)Nc1c(OCCCN(C)C)c(OC)c2occc2c1OC` the SRR (Canis familiaris [1]) was “inactive” and the LD50 [2] was 44 mg/kg.

For `CNC(=O)Nc1c(OCCCN2CCCCC2)c(OC)c2occc2c1OC`, the ISC (Canis familiaris [9]) was “inactive”, the SRR (Canis familiaris [3]) was 100% and the Duration (Canis familiaris [4]) was >100 min. The LD50 [2] was 42.5 mg/kg.

With `CNC(=O)Nc1c(OCCN2CCCCC2)c(OC)c2occc2c1OC(C)C` the SRR (Canis familiaris [1]) was “inactive” and the LD50 [2] was 11 mg/kg.

Compound `CNC(=O)Nc1c(OCCN2CCCCCC2)c(OC)c2occc2c1OC` has an ISC (Canis familiaris [10]) of 3%, an ISC (Canis familiaris [11]) of 5% and an FSC (Canis familiaris [12]) of 90%. It also gave an SRR (Canis familiaris [3]) of 100%, a Duration (Canis familiaris [4]) of 95 min and an LD50 [2] of 31 mg/kg. It also gave an FSC (Canis familiaris [13]) of 78%.

In the case of `COc1c(NC(C)=O)c(OCCCN2CCCCC2)c(OC)c2occc12`, the SRR (Canis familiaris [1]) is reported as “inactive” and the LD50 [2] is reported as 40.5 mg/kg.

In the case of `COc1c(NC(=O)Nc2ccccc2)c(OCCN2CCCCC2)c(OC)c2occc12`, the SRR (Canis familiaris [1]) is reported as “inactive” and the LD50 [2] is reported as 9 mg/kg.

For `CNC(=O)Nc1c(OCCNC(C)C)c(OC)c2occc2c1OC`, the Duration (Canis familiaris [4]) was <30 min, the LD50 [2] was 49 mg/kg and the SRR (Canis familiaris [5]) was 100%.

For `CNC(=O)Nc1c(OCCN2CCCCCCC2)c(OC)c2occc2c1OC`, the ISC (Canis familiaris [9]) was “inactive”, the SRR (Canis familiaris [3]) was 100% and the Duration (Canis familiaris [4]) was 30 min. The LD50 [2] was 14 mg/kg.

Work on `COc1c(NC(C)=O)c(OCCN2CCCCCCC2)c(OC)c2occc12` yielded an ISC (Canis familiaris [10]) of 5%, an FSC (Canis familiaris [14]) of 17% and an SRR (Canis familiaris [15]) of 100%. The Duration (Canis familiaris [4]) was >50 min, the LD50 [2] was 21 mg/kg and the Duration (Canis familiaris [8]) was <30 min.

For `CCN(CC)CCOc1c(NC(C)=O)c(OC)c2ccoc2c1OC`, the SRR (Canis familiaris [1]) was “inactive” and the LD50 [2] was 85 mg/kg.

For `CCN(CC)CCOc1c(NC(=O)NC)c(OC)c2ccoc2c1OC`, the ISC (Canis familiaris [16]) was “inactive”, the SRR (Canis familiaris [3]) was 100% and the Duration (Canis familiaris [4]) was >120 min. For the same compound, the LD50 [2] was 74 mg/kg.

With `COc1c(NC(=O)NC2CCCCC2)c(OCCN2CCCCC2)c(OC)c2occc12` the SRR (Canis familiaris [1]) was “inactive” and the LD50 [2] was 42 mg/kg.

With `CNC(=O)Nc1c(OCCCCN2CCCCC2)c(OC)c2occc2c1OC` the Duration (Canis familiaris [4]) was <30 min, the LD50 [2] was 68 mg/kg and the SRR (Canis familiaris [5]) was 100%.

With `COc1c(NC(=O)C(F)(F)F)c(OCCN2CCCCC2)c(OC)c2occc12` the SRR (Canis familiaris [1]) was “inactive” and the LD50 [2] was 22 mg/kg.

For `COc1c(NC(C)=O)c(OCCN2CCCCCC2)c(OC)c2occc12`, the SRR (Canis familiaris [1]) was “inactive” and the LD50 [2] was 33 mg/kg.

In the case of `CCOc1c(NC(=O)NC)c(OCCN2CCCCC2)c(OC)c2occc12`, the SRR (Canis familiaris [17]) is reported as “inactive” and the LD50 [2] is reported as 10 mg/kg.
